# How the values were obtained:
# [1] = cited from earlier work
# [2] = system: PA-I lectin/adhesin expression in P. aeruginosa 27853/PLL-EGFP
# [3] = system: PA-I lectin/adhesin expression in P. aeruginosa PA27853 and PAO1
# P. aeruginosa biofilm = assay type: cell-based, Pseudomonas aeruginosa
# MDCK cells = assay type: cell-based
# [4] = system: pyocyanin (PCN) production in P. aeruginosa; assay type: cell-based, Pseudomonas aeruginosa
# P. aeruginosa = assay type: cell-based, Pseudomonas aeruginosa
# [5] = system: Human pulmonary microvascular endothelial cell; assay type: cell-based; settings: for effect of agonist alone on endothelial cell barrier function (TER): HPMVEC
# [6] = in vivo; cited from earlier work
# [7] = cited from earlier work; remark: listed apart in the source
# S1P3 receptor = test: Tyrosine phosphorylation (transactivation) of the S1P3 receptor; assay type: cell-based, Human; settings: pre-treatment
# [8] = system: P. aeruginosa whole cells and membrane fractions; test: ELISA / immunofluorescence binding of cytokines to P. aeruginosa cells and membrane fractions; set-up: species or system Pseudomonas aeruginosa; settings: for binding to P. aeruginosa membrane fractions: PAO1 membranes, ELISA
# Procedure: IFN-γ direct binding to a protein on the surface of P. aeruginosa, in the course of virulence activation, was also investigated. ELISA binding assays were performed by first coating microtiter plates with P. aeruginosa (strain PAO1), then adding recombinant human IFN-γ (rH IFN-γ), followed by biotin-labeled anti-IFN-γ antibody. […] In order to localize the binding site of IFN-γ to P. aeruginosa (PAO1), equal protein concentrations of membrane and cytosol fractions of P. aeruginosa were prepared and coated onto ELISA microtiter plates.
# [9] = system: quorum sensing signaling system of P. aeruginosa PAO1; test: Quorum sensing activation in PAO1 (rhlI Northern blot, C4-HSL in supernatants); assay type: cell-based, Pseudomonas aeruginosa
# [10] = target: T1, outer membrane protein OprF (Pseudomonas aeruginosa, UniProt P13794); test: Binding of IFN-γ to purified OprF; settings: dose-dependent
# T1 sequence (P13794 25-350): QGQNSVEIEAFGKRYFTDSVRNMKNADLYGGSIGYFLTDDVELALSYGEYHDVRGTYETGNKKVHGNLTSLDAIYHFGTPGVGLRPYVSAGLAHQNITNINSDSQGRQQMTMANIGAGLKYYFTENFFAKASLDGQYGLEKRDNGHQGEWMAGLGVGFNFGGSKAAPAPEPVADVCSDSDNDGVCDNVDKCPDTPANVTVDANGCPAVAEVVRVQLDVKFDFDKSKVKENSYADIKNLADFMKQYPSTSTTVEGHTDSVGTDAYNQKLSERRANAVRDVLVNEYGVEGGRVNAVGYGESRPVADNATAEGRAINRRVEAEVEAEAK
# Caco-2 cell monolayers = test: Barrier dysregulation of Caco-2 monolayers by PA27853 in the presence of IFN-γ; assay type: cell-based, Human; settings: after five hours of incubation
# Procedure: In addition, strains were exposed to apical media from Caco-2 cells basolaterally exposed to single and combinations of the various epithelial-derived cytokines. […] Media from Caco-2 cells exposed to various combinations of these cytokines had no effect on PA-I expression. […] Using both ELISA, immunofluorescence microscopy, and flow cytometry, the binding characteristics of IFNγ were determined for both whole bacteria and membrane fractions of P. aeruginosa. […] These effects were also observed with strain PAO1. […] It has been difficult to immunoprecipitate a significant quantity of this protein from PA27853, but it has been determined that this protein can also be immunoprecipitated from E. coli. Next, IFN-γ binding specificity, to whole bacterial cells, was determined, using reiterative binding studies in the presence of various gram-negative bacterial strains, including P. aeruginosa. […] Finally, in order to determine if PA-I was functionally expressed in […] in the presence IFN-γ, PA27853 was inoculated onto Caco-2 cell monolayers in the presence of IFN-γ and the effect on barrier dysregulating dynamics of PA27853 against this cell line were assessed to determine if IFN-γ shifted the dynamics. IFN-γ enhanced the barrier dysregulating effect of PA27853 against the intestinal epithelium after five hours of incubation by about 20%. […]
compound,measurement,setting,value
"C[C@H]1CN(C[C@H](Cc2ccccc2)C(=O)NCC(=O)O)CCC1(C)c1cccc(O)c1 (single isomer, unassigned; (+)) [formula (II), (+)-Z-NHCH2 C(O)OH]",solubility in water,[1],low solubility in water except at low or high pH conditions
Nc1ncnc2c1ncn2[C@@H]1O[C@H](COP(=O)(O)OP(=O)(O)O)[C@@H](O)[C@H]1O [ADP],PA-I expression,[2],no evident inducing effect
Nc1ncnc2c1ncn2[C@@H]1O[C@H](COP(=O)(O)O)[C@@H](O)[C@H]1O [AMP],PA-I expression,[2],no evident inducing effect
Nc1ncnc2c1ncn2[C@@H]1O[C@H](COP(=O)(O)OP(=O)(O)OP(=O)(O)O)[C@@H](O)[C@H]1O [ATP],PA-I expression,[2],no evident inducing effect
C=CCN1C[C@H](C)N([C@H](c2ccc(C(=O)N(CC)CC)cc2)c2cccc(O)c2)C[C@H]1C [BW373U86],PA-I protein expression,[3],induced a response equal to C4-HSL
same,response to express PA-I,[3],induce a robust response
same,PA-I expression judged by fluorescence of the GFP reporter strain,[2],greatest effect on PA-I expression
same,biofilm production,P. aeruginosa biofilm,~180 % of PA27853 induction
same,additional TEER decrease,MDCK cells,~25%
"CCCC(=O)N[C@H]1CCOC1=O [C4-HSL, C4-homoserine lactone]",PA-I expression,[3],induced PA-I expression
same,increase in PA-I expression,[3],~16 fold
same,PCN production in seven additional mvfR mutants,[4],none of these mutants produced PCN
same,PCN production in ΔGacA and ΔMvfR,[4],unable to restore PCN production
same,PCN production in ΔGacA/gacA,[4],"decreased, albeit minimally"
same,PCN production in ΔMvfR/mvfR,[4],further increased the already elevated PCN production
same,PCN production versus cell density,[4],shift in the production of PCN at lower cell densities
same,PCN response of MvfR mutant 121-332,[4],"did not respond to U-50,488 or C4-HSL"
same,"PCN response of MvfR mutants 1-292, 1-291, 1-283",[4],"did not respond to U-50,488 and C4-HSL"
same,PCN response of MvfR mutants 1-299 and 1-293,[4],"responded to U-50,488 and C4-HSL with enhanced PCN production"
same,dynamic tracking of PCN production in ΔMvfR/mvfR,[4],demonstrated a shift in PCN production at lower cell densities
same,dynamics of PCN production in ΔGacA/gacA,[4],had no effect on the dynamics of PCN production
same,effect on bacterial growth,P. aeruginosa,Neither compound had an effect on bacterial growth
C[C@@H](O)C(=O)O [D-lactate],PA-I promoter activity (fluorescence),[2],had no effect on PA-I promoter activity
"C[C@@H](NC(=O)[C@@H](N)Cc1ccc(O)cc1)C(=O)NCC(=O)N(C)[C@@H](Cc1ccccc1)C(=O)NCCO [DAMGO, [D-Ala^2, N-MePhe^4, Gly^5-ol]]",effect of agonist alone on endothelial cell barrier function (TER),[5],induced endothelial cell barrier disruption in a dose-dependent manner
"CC(=O)N[C@H]1C(O)O[C@H](CO)[C@H](O)[C@@H]1O (stereo partly drawn) [GalNac, N-acetylgalactoside]",PA-I mRNA increase on dense adherence to Caco-2 cells,[3]; Caco-2,nearly completely abolished
same,PA-I mRNA induced by Caco-2 cell membrane fractions,[3]; Caco-2,attenuated
C[C@H](O)C(=O)O [L-lactate],PA-I promoter activity (fluorescence),[2],had no effect on PA-I promoter activity
"COC(=O)c1ccccc1N [MA, methyl anthranilate]","effect on U-50,488-enhanced PCN production",[4],"inhibited the ability of U-50,488 to enhance PCN production"
"Oc1ccc2c3c1O[C@H]1c4[nH]c5c(c4C[C@@]4(O)[C@@H](C2)N(CC2CC2)CC[C@]314)C[C@@]1(O)[C@H]2Cc3ccc(O)c4c3[C@@]1(CCN2CC1CC1)[C@H]5O4 [NOR, nor-binaltorphimine]","effect on U-50,488-enhanced PCN production",[4],attenuates enhanced PCN production
same,"dose that completely inhibits U-50,488-enhanced PCN production",[4]; PAO1,200 µM
CC(C)(C)n1nc(-c2ccc(Cl)cc2)c2c(N)ncnc21 [PP2],effect on S1P-mediated endothelial cell barrier enhancement,[5]; Src family kinase inhibition,did not affect S1P-mediated endothelial cell barrier enhancement
same,effect on agonist-induced barrier disruption,[5]; Src family kinase inhibition,blocked agonist-induced barrier disruption
Nc1ncnc2c1ncn2[C@@H]1O[C@H](CO)[C@@H](O)[C@H]1O [adenosine],"PA-I expression, compound alone in media",[3],none of the other compounds alone had any effect
same,PA-I expression,[2],increased
same,PA-I promoter activity (fluorescence),[2],enhanced fluorescence
same,exposure time before PA-I promoter activity was observed,[2],6 h
OC[C@H]1O[C@@H](n2cnc3c(O)ncnc32)[C@H](O)[C@@H]1O [inosine],"change in PA-I expression over time, magnitude versus adenosine",[2],effect of inosine greater
same,concentration inducing PA-I expression relative to adenosine,[2],10 fold less than adenosine
same,onset of PA-I expression versus adenosine,[2],at an earlier time point and at lower cell densities (OD) compared to adenosine
C=CCN1CC[C@]23c4c5ccc(O)c4O[C@H]2C(=O)CC[C@@]3(O)[C@H]1C5 [naloxone],effect on morphine-induced PA-I lectin/adhesin expression,[2],significantly attenuated
same,crossing of the blood-brain barrier,[6],crosses the blood-brain barrier easily
same,lipid solubility / polarity,[7],fairly lipid-soluble
same,effect on morphine- and DAMGO-induced S1P3 receptor transactivation,S1P3 receptor,blocked the effects of morphine and DAMGO
same,effect on MS- and DAMGO-induced endothelial cell barrier disruption,[5],blocked
same,barrier protection with thrombin and LPS challenge,[5]; 0.1 μM,did not display the same endothelial cell barrier-protective effects as MNTX
EGF: human cytokine tested for membrane binding,binding to P. aeruginosa membrane fractions,[8],No binding was observed
IFN-γ: human recombinant interferon gamma,PA-I expression,[3],induced PA-I expression
same,"PA-I expression, compound alone in media",[3],induced a direct effect on PA-I expression
same,PA-I mRNA and protein,[3],increased
same,"PA-I protein expression, dose dependence",[3],"dose dependent, with the greatest increase seen with 100 ng/ml"
same,lecA (PA-I) mRNA by Northern blot,[3],induced lecA mRNA
same,response to express PA-I,[3],induce a robust response
same,PA-I expression (fluorescence),[2],significant increase in PA-1 expression
same,C4-HSL synthesis,[9]; 100 ng/ml IFN-γ,increased
same,rhlI gene transcription,[9]; Northern blot,induced rhl1 transcription
same,binding to purified OprF,[10],directly binds
same,enhancement of barrier dysregulating effect of PA27853,Caco-2 cell monolayers,about 20%
same,binding to whole bacterial cells,[8]; PA27853,high binding affinity
same,ELISA binding to whole fixed cells,[8]; PAO1,avidly bound to whole fixed cells of P. aeruginosa in a dose-dependent manner
same,bacterial cells that bound IFN-γ (immunofluorescent imaging),[8]; PAO1,73%±3.2%
same,binding to P. aeruginosa membrane fractions,[8],preferentially bound to membrane fractions
same,pyocyanin production,[4],increased pyocyanin production
IL-4: human cytokine,binding to P. aeruginosa membrane fractions,[8],No binding was observed
IL-6: human cytokine,"PA-I expression, compound alone in media",[3],none of the other compounds alone had any effect
IL-8: human cytokine,"PA-I expression, compound alone in media",[3],none of the other compounds alone had any effect
IL-10: human cytokine,binding to P. aeruginosa membrane fractions,[8],No binding was observed
TGF-β,binding to P. aeruginosa membrane fractions,[8],No binding was observed
TNF-α,"PA-I expression, compound alone in media",[3],none of the other compounds alone had any effect
same,binding to P. aeruginosa membrane fractions,[8],No binding was observed
Thrombin,effect of agonist alone on endothelial cell barrier function (TER),[5],induced a rapid transient decrease in endothelial cell barrier function
adenosine deaminase,PA-I expression after adenosine depletion of HIF-1-α-activated Caco-2 media,[2]; Caco-2,even greater increase in PA-I expression
dynorphin,PCN production,[4],enhanced PCN production in a dose-dependent manner

# Reference: patent US20080194611A1, “Modulation of Cell Barrier Dysfunction” (priority 2005, published 2008)
